Reference: patent US20160263155A1, “T CELL RECEPTORS DIRECTED AGAINST THE PREFERENTIALLY EXPRESSED ANTIGEN OF MELANOMA AND USES THEREOF” (LEIDEN UNIVERSITY MEDICAL CENTER, priority 2015, published 2016)
“Also recorded” adds a separate entry of the source.

How the values were obtained:
[1] = test system: CD3+ΔCD19+ cells (iCasp9+ T cells); test: Phase I clinical trial of allodepleted T cells transduced with inducible caspase-9 suicide gene after haploidentical stem cell transplantation; type: in vivo, human
Excerpt: This example presents results of a phase 1 clinical trial using an alternative suicide gene strategy. Briefly, donor peripheral blood mononuclear cells were co-cultured with recipient irradiated EBV-transformed lymphoblastoid cells (40:1) for 72 hrs, allodepleted with a CD25 immunotoxin and then transduced with a retroviral supernatant carrying the iCasp9 suicide gene and a selection marker (ΔCD19); ΔCD19 allowed enrichment to >90% purity via immunomagnetic selection.
Patients developing grade 1 GvHD were treated with 0.4 mg/kg AP1903 as a 2-hour infusion. Protocols for administration of AP1903 to patients grade 1 GvHD were established as follows. Patients developing GvHD after infusion of allodepleted T cells are biopsied to confirm the diagnosis and receive 0.4 mg/kg of AP1903 as a 2 h infusion. […] Patients developing grades 2-4 GvHD were administered standard systemic immunosuppressive therapy per institutional guidelines, in addition to the AP1903 dimerizer drug.
Instructions for preparation and infusion: AP1903 for injection is obtained as a concentrated solution of 2.33 ml in a 3 ml vial, at a concentration of 5 mg/ml, (i.e., […] per vial). Prior to administration, the calculated dose was diluted to 100 mL in 0.9% normal saline for infusion. AP1903 for injection (0.4 mg/kg) in a volume of 100 ml was administered via IV infusion over 2 hours, using a non-DEHP, non-ethylene oxide sterilized infusion set and infusion pump.
Three patients received iCasp9^+ T cells after haplo-CD34^+ stem cell transplantation (SCT), at dose levels between about 1×10^6 to about 3×10^6 cells/kg.
Infused T cells were detected in vivo by flow cytometry (CD3^+ΔCD19^+) or qPCR as early as day 7 after infusion, with a maximum fold expansion of 170±5 (day 29±9 after infusion).

[2] = test system: T cells transduced with the PRAME-TCR in combination with the iCasp9; test: PRAME reactivity of T cells transduced with PRAME-TCR in combination with iCasp9 after AP1903 treatment; type: cell-based, human; conditions: 100 nM AP1903 for 18 h (overnight)
Protocol: The TCRAV and TCRBV gene usage of clone AAV54 (also called clone 54 or HSS1) was determined using reverse transcriptase (RT)-PCR and sequencing^5. […]
FIG. 12, Different retroviral vectors encoding for the PRAME-TCR were transduced into virus specific T cells and the reactivity is measured against target cells loaded with different concentrations of the PRAME peptide and against two melanoma cell-lines: FM6 positive for HLA-A2 and PRAME, and M13046/2 positive for HLA-A2 but negative for PRAME. […]
FIG. 15 Different retroviral vectors encoding for the PRAME-TCR were transduced into virus specific T cells and the reactivity was measured against target cells (T2 cells) loaded with PRAME peptide and two PRAME positive and HLA-A2 positive melanoma cell-lines: 518.A2 and FM6, and one PRAME negative but HLA-A2 positive melanoma cell line M13046/2. […]

[3] = test system: Cell A T cells (iCasp9); test: In vivo Cell A response to rimiducid in NSG mice (flow cytometry of spleens); set-up: species or system NSG mouse; conditions: 24 hours after rimiducid 5 mg/kg i.p.; 42±1.1% in untreated mice; p<0.0001
Protocol: 16 mice received an i.v. injection of 1×10^7 Cell A T cells on Day 0 as outlined above. Forty eight hours later, eight of the mice were injected i.p. with rimiducid at 5 mg/kg to evaluate activation of iCasp9 and apoptosis of the Cell A T cells; the other eight mice were left untreated. […] Thus, the iCasp9 encoded within Cell A represents a functioning safety switch that can be triggered in vivo to eliminate Cell A cells.

[4] = test system: cells; test: Amount of AP1903 needed in vitro for effective signaling of cells; type: cell-based
Protocol: The fixed dose of AP1903 for injection used, for example, may be 0.4 mg/kg intravenously infused over 2 hours. The amount of AP1903 needed in vitro for effective signaling of cells is about 10-100 nM (MW: 1412 Da). This equates to 14-140 μg/L or ˜0.014-0.14 mg/kg ([…]). The dosage may vary according to the application, and may, in certain examples, be more in the range of 0.1-10 nM, or in the range of 50-150 nM, 10-200 nM, 75-125 nM, 100-500 nM, 100-600 nM, 100-700 nM, 100-800 nM, or 100-900 nM. Doses up to 1 mg/kg were well-tolerated in the Phase I study of AP1903 described above.

[5] = test system: Cell A T cells (iCasp9 suicide gene); test: Overnight culture of spleen and bone marrow cells from Cell A-treated animals with or without rimiducid; type: cell-based, NSG mouse; conditions: 10 nM rimiducid overnight; p<0.05
Protocol: A fraction of spleen and bone marrow cells were isolated from the Cell A-treated animals as analyzed above, and were cultured overnight with or without 10 nM rimiducid in order to determine the sensitivity of the suicide switch.

[6] = test system: inducible caspase-9 expressing T cells; test: CASPALLO and DOTTI trials: AP1903 given to subjects treated with T cells containing the iCaspase-9 suicide switch; type: in vivo, human
Protocol: The DOTTI trial is a follow-up study to the CASPALLO trial. Three subjects subsequently developed Grade I & II acute GVHD and were treated with a single dose of the dimerizing drug AP1903. Four subjects are alive at a median of 476 days after transplant (range 278-674 days), and who had received AP1903.

[7] = cited from earlier work
[8] = molecular target: T1, PRAME peptide on HLA-A*02:01 (human); test: multimer staining
T1 peptide: SLLQHLIGL

[9] = test system: neuroblastoma (NB) cell lines; test: HLA-class I expression of neuroblastoma cell lines after interferon treatment; type: cell-based, human; conditions: 48 h, 300 IU/ml IFN-α or 100 IU/ml IFN-γ
[10] = test system: Ewing sarcoma cell lines; test: HLA-class I expression of Ewing sarcoma cell lines after interferon treatment; type: cell-based, human; conditions: 48 h, 300 IU/ml IFN-alpha or 100 IU/ml IFN-gamma

## CC[C@H](C(=O)N1CCCC[C@H]1C(=O)O[C@H](CCc1ccc(OC)c(OC)c1)c1cccc(OCC(=O)NCCNC(=O)COc2cccc([C@@H](CCc3ccc(OC)c(OC)c3)OC(=O)[C@@H]3CCCCN3C(=O)[C@@H](CC)c3cc(OC)c(OC)c(OC)c3)c2)c1)c1cc(OC)c(OC)c(OC)c1 (relative stereo) [AP1903, 2-Piperidinecarboxylic acid, 1-[(2S)-1-oxo-2-(3,4,5-trimethoxyphenyl)butyl]-, 1,2-ethanediylbis [imino(2-oxo-2,1-ethanediyl)oxy-3,1-phenylene[(1R)-3-(3,4-dimethoxyphenyl)propylidene]] ester, [2S-[1(R*),2R*[S*[S*[1(R*),2R*]]]]]-(9CI)]
[1]; after AP1903 administration
  resolution of skin and liver aGvHD: ≤ 24 h
[1]; within 30 minutes of infusion, two patients with grade I/II aGvHD, 0.4 mg/kg as 2-hour infusion
  ablation of CD3+ΔCD19+ cells: > 90%
[1]; within 24 hours
  further reduction of CD3+ΔCD19+ cells: further log reduction
[2]
  PRAME specific reactivity of T cells transduced with PRAME-TCR and iCasp9 after AP1903: abrogated
[3]
  human T cells in spleen that were Vβ1+: 7.3±0.2%
[4]
  amount of AP1903 needed for effective signaling, converted to dose: 0.014 to 0.14 mg/kg
  amount of AP1903 needed in vitro for effective signaling of cells: 10 to 100 nM
[4]; MW 1412 Da
  amount of AP1903 needed in vitro for effective signaling of cells, converted: 14 to 140 µg/L
[5]
  fraction of Vβ1+ T cells recovered from spleen and bone marrow: significantly reduced
[6]; 30 minutes from the end of a 2 hour intravenous infusion, CASPALLO trial
  elimination of inducible caspase-9 expressing T cells: ≥ 90%
[6]; CASPALLO and DOTTI trials
  adverse events associated with AP1903: No adverse events; also recorded: no immediate or delayed adverse events
[6]; four subjects, CASPALLO trial
  acute GVHD after administration of AP1903: rapidly abrogated
[7]; Phase I study
  well-tolerated doses: up to 1 mg/kg
[7]; human, in vivo, 1 mg/kg
  adverse event considered possibly related to AP1903: vasodilatation
[7]; human, in vivo
  AP1903 plasma levels versus dose: directly proportional to dose
  incidence of adverse events: very low
  serious adverse events: No serious adverse events
  severity of adverse events: mild

B1: AAV54 SLL (TCR, V domains shown)
Valpha: AQSVTQLGSHVSVSERALVLLRCNYSSSVPPYLFWYVQYPNQGLQLLLKYTSAATLVKGINGFEAEFKKSETSFHLTKPSAHMSDAAEYFCAVSGQTGANNLFFGTGTRLTVIP
Vbeta: DSGVTQTPKHLITATGQRVTLRCSPRSGDLSVYWYQQSLDQGLQFLIQYYNGEERAKGNILERFSAQQFPDLHSELNLSSLELGDSALYFCASARWDRGGEQYFGPGTRLTVT
[8]
  binding result: recognises

B2: AAV46 SLL (TCR, V domains shown)
Valpha: GQQLNQSPQSMFIQEGEDVSMNCTSSSIFNTWLWYKQDPGEGPVLLIALYKAGELTSNGRLTAQFGITRKDSFLNISASIPSDVGIYFCAGIPRDNYGQNFVFGPGTRLSVLP
Vbeta: DVKVTQSSRYLVKRTGEKVFLECVQDMDHENMFWYRQDPGLGLRLIYFSYDVKMKEKGDIPEGYSVSREKKERFSLILESASTNQTSMYLCASTPWLAGGNEQFFGPGTRLTVL
[8]
  binding result: recognises

B3: IFN-gamma: interferon used to treat tumor cell lines for 48 h (protein, UniProt P01579 24-161, looked up)
Interferon gamma: QDPYVKEAENLKKYFNAGHSDVADNGTLFLGILKNWKEESDRKIMQSQIVSFYFKLFKNFKDDQSIQKSVETIKEDMNVKFFNSNKKKRDDFEKLTNYSVTDLNVQRKAIHELIQVMAELSPAAKTGKRKRSQMLFRG
[9]
  HLA-class I expression on the cell surface: increased
[10]
  HLA-class I expression on the cell surface: increased
